Measured values from patent US10407691B2 (priority 2014, dated 2019).
Entries after “also recorded” stand apart in the source; their conditions may differ. Non-standard residues stand in square brackets, D forms with d. Residues, ends and D or L forms follow the SMILES beside them. sY = N[C@@H](Cc1ccc(OS(=O)(=O)O)cc1)C(=O)O

How the values were obtained:
[1] = target: T1, XA21 (Oryza sativa subsp. indica, UniProt Q1MX30); type: cell-based, Oryza sativa ssp. japonica
[2] = tested on: rice seedlings; set-up: species or system Oryza sativa sp. japonica; settings: in vivo
[3] = target: T1, XA21; test: cell-based; type: cell-based, Oryza sativa ssp. japonica
[4] = tested on: Arabidopsis seedlings; set-up: species or system Arabidopsis thaliana; settings: in vivo
[5] = tested on: Arabidopsis seedlings; set-up: species or system Arabidopsis thaliana; settings: in vivo; remark: listed apart in the source
[6] = tested on: tpst-1 seedlings; set-up: species or system Arabidopsis thaliana; settings: in vivo
[7] = target: T1, XA21; type: cell-based, Oryza sativa ssp. japonica; remark: listed apart in the source

T1 sequence (Q1MX30 24-1025 limits assumed): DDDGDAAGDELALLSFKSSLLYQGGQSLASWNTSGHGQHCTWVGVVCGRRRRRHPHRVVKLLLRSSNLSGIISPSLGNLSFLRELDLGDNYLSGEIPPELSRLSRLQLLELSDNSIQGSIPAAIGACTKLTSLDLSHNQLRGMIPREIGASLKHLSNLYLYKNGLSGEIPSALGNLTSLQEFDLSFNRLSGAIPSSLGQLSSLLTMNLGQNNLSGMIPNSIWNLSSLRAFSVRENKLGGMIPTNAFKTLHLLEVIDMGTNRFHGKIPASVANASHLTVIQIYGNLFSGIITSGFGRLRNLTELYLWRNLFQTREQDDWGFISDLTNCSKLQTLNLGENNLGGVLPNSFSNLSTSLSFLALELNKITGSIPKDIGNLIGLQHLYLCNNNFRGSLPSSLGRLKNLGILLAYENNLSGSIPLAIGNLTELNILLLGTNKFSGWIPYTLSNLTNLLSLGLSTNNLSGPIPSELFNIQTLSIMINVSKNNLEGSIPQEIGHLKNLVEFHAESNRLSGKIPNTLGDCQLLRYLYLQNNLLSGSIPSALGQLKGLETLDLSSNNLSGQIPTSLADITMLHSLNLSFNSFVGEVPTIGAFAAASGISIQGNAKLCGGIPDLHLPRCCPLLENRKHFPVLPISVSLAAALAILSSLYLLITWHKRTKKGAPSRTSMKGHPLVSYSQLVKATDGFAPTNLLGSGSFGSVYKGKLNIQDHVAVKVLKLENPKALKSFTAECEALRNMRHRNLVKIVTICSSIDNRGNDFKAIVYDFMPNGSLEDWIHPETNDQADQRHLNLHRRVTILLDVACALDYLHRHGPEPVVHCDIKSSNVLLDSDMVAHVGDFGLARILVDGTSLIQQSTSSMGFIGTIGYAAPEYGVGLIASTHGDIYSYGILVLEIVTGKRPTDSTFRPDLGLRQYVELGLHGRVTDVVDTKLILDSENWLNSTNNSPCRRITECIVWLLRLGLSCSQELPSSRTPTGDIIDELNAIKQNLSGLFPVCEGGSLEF

## CC(C)[C@H](NC(=O)[C@@H](N)Cc1c[nH]cn1)C(=O)NCC(=O)NCC(=O)NCC(=O)N[C@@H](CC(=O)O)C(=O)N[C@@H](Cc1ccc(OS(=O)(=O)O)cc1)C(=O)N1CCC[C@H]1C(=O)N1CCC[C@H]1C(=O)N1CCC[C@H]1C(=O)NCC(=O)N[C@@H](C)C(=O)N[C@@H](CC(N)=O)C(=O)N1CCC[C@H]1C(=O)N[C@@H](CCCCN)C(=O)N[C@@H](Cc1c[nH]cn1)C(=O)N[C@@H](CC(=O)O)C(=O)N1CCC[C@H]1C(=O)N1CCC[C@H]1C(=O)N1CCC[C@H]1C(=O)N[C@@H](CCCNC(=N)N)C(=O)O [RaxX21-sY, HVGGGDY^SPPPGANPKHDPPPR] (H-HVGGGD[sY]PPPGANPKHDPPPR-OH)
[1]
  ethylene production: able to activate
[2]
  root growth: significantly enhanced root growth; also recorded: promotes root growth in Arabidopsis and rice
  root length: significantly longer roots
[3]
  ROS production: significant RaxX21-sY-mediated upregulation of defense gene expression and ROS production; also recorded: induced ROS production and defense gene expression changes; also recorded: activates the production of ROS
  ROS production over 90 min: triggered a ROS response characteristic of the XA21-mediated immune response
  XA21-mediated defense responses (ability to activate XA21-dependent signaling): trigger XA21-mediated defense responses
  total ROS production over 3 h: retained the ability to induce XA21-dependent signaling; also recorded: able to activate
[4]
  average root length: 61 mm
  dose dependent activity on root growth: effective at inducing root growth at concentrations in the low nanomolar range
  root growth promotion: promoted root growth in a similar manner to that observed for AtPSY1; also recorded: promotes root growth in Arabidopsis and rice
  root length: statistically longer root lengths
[5]
  effect on elf18-triggered growth inhibition: do not prevent elf18-triggered growth inhibition
[6]
  root growth rate: increased root growth rate
[7]
  defense gene expression: significant RaxX21-sY-mediated upregulation of defense gene expression and ROS production; also recorded: activates gene expression
  defense gene induction (Os06g37224): induced ROS production and defense gene expression changes
  defense marker gene expression (Os04g10100, PR10b, Os12g36830, Os06g37224), temporal changes: able to activate; also recorded: sufficient to activate XA21-mediated defense gene expression

## CC(C)C[C@H](N)C(=O)N[C@@H](Cc1c[nH]c2ccccc12)C(=O)N[C@@H](CCCCN)C(=O)N[C@@H](Cc1c[nH]cn1)C(=O)N[C@H](C(=O)NCC(=O)NCC(=O)NCC(=O)N[C@@H](CC(=O)O)C(=O)N[C@@H](Cc1ccc(OS(=O)(=O)O)cc1)C(=O)N1CCC[C@H]1C(=O)N1CCC[C@H]1C(=O)N1CCC[C@H]1C(=O)NCC(=O)N[C@@H](C)C(=O)N[C@@H](CC(N)=O)C(=O)N1CCC[C@H]1C(=O)N[C@@H](CCCCN)C(=O)N[C@@H](Cc1c[nH]cn1)C(=O)N[C@@H](CC(=O)O)C(=O)N1CCC[C@H]1C(=O)N1CCC[C@H]1C(=O)N1CCC[C@H]1C(=O)N[C@@H](CCCNC(=N)N)C(=O)O)C(C)C [RaxX24-sY]
[3]
  EC50: ~30 nM
  XA21-mediated defense responses (ability to activate XA21-dependent signaling): trigger XA21-mediated defense responses
  total ROS production over 3 h: confirmed

## CC(C)C[C@H](NC(=O)[C@H](CCCNC(=N)N)NC(=O)[C@H](CCC(N)=O)NC(=O)[C@H](CC(=O)O)NC(=O)[C@H](CC(C)C)NC(=O)[C@@H]1CCCN1C(=O)[C@H](CCC(=O)O)NC(=O)[C@@H]1CCCN1C(=O)[C@H](CCCNC(=N)N)NC(=O)CNC(=O)[C@@H](N)CCCCN)C(=O)N[C@@H](Cc1c[nH]c2ccccc12)C(=O)N[C@@H](CCCCN)C(=O)N[C@@H](Cc1c[nH]cn1)C(=O)N[C@H](C(=O)NCC(=O)NCC(=O)NCC(=O)N[C@@H](CC(=O)O)C(=O)N[C@@H](Cc1ccc(OS(=O)(=O)O)cc1)C(=O)N1CCC[C@H]1C(=O)N1CCC[C@H]1C(=O)N1CCC[C@H]1C(=O)NCC(=O)N[C@@H](C)C(=O)N[C@@H](CC(N)=O)C(=O)N1CCC[C@H]1C(=O)N[C@@H](CCCCN)C(=O)N[C@@H](Cc1c[nH]cn1)C(=O)N[C@@H](CC(=O)O)C(=O)N1CCC[C@H]1C(=O)N1CCC[C@H]1C(=O)N1CCC[C@H]1C(=O)N[C@@H](CCCNC(=N)N)C(=O)N[C@@H](CC(N)=O)C(=O)N1CCC[C@H]1C(=O)NCC(=O)N[C@@H](Cc1c[nH]cn1)C(=O)N[C@@H](Cc1c[nH]cn1)C(=O)O)C(C)C [RaxX39-sY]
[3]
  XA21-mediated defense responses (ability to activate XA21-dependent signaling): trigger XA21-mediated defense responses
[7]
  defense gene expression (PR10b and Os06g37224): triggers defense gene expression in an XA21-dependent manner; also recorded: activates XA21-mediated defense gene expression

## DY^SGDPSANPKHDPGVPPS [AtPSY1, reference compound]
[2]
  root growth: significantly enhanced root growth
[3]
  ROS production over 90 min: failed to induce ROS production
[4]
  dose dependent activity on root growth: less active than RaxX21-sY and PSK
  root growth: increased root growth in a similar manner to that observed for treatment of wild type Col-0 seedlings; also recorded: also responds
[5]
  effect on elf18-triggered growth inhibition: do not prevent elf18-triggered growth inhibition
[6]
  root growth rate: increased root growth rate

## DY^SPAPGANPRHNPKRPPG [OsPSY1a, reference compound]
[3]
  ROS production over 90 min: failed to induce ROS production

## DY^SPPPGANPKHDP [RaxX13-sY]
[2]
  root growth: still capable of promoting root growth
[3]
  ROS production over 90 min: did not induce ROS production
[4]
  root growth promotion: still capable of promoting root growth

## DY^SPPPGANPKHDPPPR [RaxX16-sY]
[2]
  root growth: still capable of promoting root growth
[3]
  ROS production over 90 min: triggered a ROS response characteristic of the XA21-mediated immune response; also recorded: able to recognize
[4]
  root growth promotion: still capable of promoting root growth

## HVGGGDYPPPGANPKHDPPPR [RaxX21-Y]
[1]
  ethylene production: not
[4]
  dose dependent activity on root growth: promoted root growth, but was less active than the sulfated version

## KGRPEPLDQRLWKHVGGGDYPPPGANPKHDPPPRNPGHH [RaxX39-Y]
[7]
  defense gene expression (PR10b and Os06g37224): does not

## LWKHVGGGDYPPPGANPK [RaxX18-sY]
[3]
  ROS production dose response (activity): completely inactive
  XA21-mediated defense responses (ability to activate XA21-dependent signaling): do not
  total ROS production over 3 h: compromised in this activity

## LWKHVGGGDY^SAPPGSNDRHDPPKP [RaxX24-Xcm-sY]
[4]
  root growth promotion: promoted root growth on Arabidopsis seedlings in a manner similar to that of RaxX21-sY

## LWKHVGGGDY^SPPPGANTKHDPPPK [RaxX24-Xe-sY]
[4]
  root growth promotion: promoted root growth on Arabidopsis seedlings in a manner similar to that of RaxX21-sY

## LWKHVGGGDY^SPPSGPNTKHDPPPP [RaxX24-Xoc-sY]
[4]
  root growth promotion: promoted root growth on Arabidopsis seedlings in a manner similar to that of RaxX21-sY; also recorded: still capable of inducing root growth

## Y^SIY^STQ [PSK, reference compound]
[3]
  ROS production over 90 min: failed to activate XA21-mediated immune response
[4]
  dose dependent activity on root growth: comparable
[5]
  effect on elf18-triggered growth inhibition: attenuates elf18-mediated growth inhibition
